According to ChEMBL document CHEMBL1201862, “PubChem BioAssay data set” (2004):
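Step 1: Grow cells in 96-well plates. Step 2: Expose to compound for 48 hours at 5 concentrations. Step 3: Interpolate endpoints linearly; if unreached, use highest concentration. GI50 = concentration required for 50% inhibition of growth.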 Activity calls are given as the source filed them. Cut-off read from the data, not from the text of the source: active = GI50 up to about 1.1 µM and inactive = higher.

How the values were obtained:
Test in all cases: NCI-60 cell line screen, 48 h
MDA-N = system: MDA-N
NCI/ADR-RES = system: NCI/ADR-RES
UO-31 = system: UO-31
MDA-MB-435 = system: MDA-MB-435
NCI-H226 = system: NCI-H226
M14 = system: M14
SW-620 = system: SW-620
MOLT-4 = system: MOLT-4
HCC 2998 = system: HCC 2998
DU-145 = system: DU-145
OVCAR-5 = system: OVCAR-5
TK-10 = system: TK-10
T47D = system: T47D
COLO 205 = system: COLO 205
SNB-75 = system: SNB-75
OVCAR-4 = system: OVCAR-4
SR = system: SR
MDA-MB-231 = system: MDA-MB-231
HCT-15 = system: HCT-15
RPMI-8226 = system: RPMI-8226

Compound	GI50 (MDA-N)	GI50 (NCI/ADR-RES)	GI50 (UO-31)	GI50 (MDA-MB-435)	GI50 (NCI-H226)	GI50 (M14)	GI50 (SW-620)	GI50 (MOLT-4)	GI50 (HCC 2998)	GI50 (DU-145)	GI50 (OVCAR-5)	GI50 (TK-10)	GI50 (T47D)	GI50 (COLO 205)	GI50 (SNB-75)	GI50 (OVCAR-4)	GI50 (SR)	GI50 (MDA-MB-231)	GI50 (HCT-15)	GI50 (RPMI-8226)
CCOC(=N)n1c(=O)n(C2=NCCN2)c2ccccc21	> 100 µM (inactive)	> 100 µM (inactive)	> 100 µM (inactive)	> 100 µM (inactive)	> 100 µM (inactive)	> 100 µM (inactive)	> 100 µM (inactive)	> 100 µM (inactive)	> 100 µM (inactive)	> 100 µM (inactive)	> 100 µM (inactive)	> 100 µM (inactive)	> 100 µM (inactive)	> 100 µM (inactive)	31.2 µM (inactive)	> 100 µM (inactive)	> 100 µM (inactive)	> 100 µM (inactive)	> 100 µM	
O=c1cc(NCc2ccncc2)[nH]c(=O)[nH]1	> 100 µM (inactive)	> 100 µM (inactive)	> 100 µM (inactive)	> 100 µM (inactive)	> 100 µM (inactive)	> 100 µM (inactive)	> 100 µM (inactive)	> 100 µM (inactive)	> 100 µM (inactive)		> 100 µM (inactive)	> 100 µM (inactive)	> 100 µM (inactive)	> 100 µM (inactive)	> 100 µM (inactive)	> 100 µM (inactive)	> 100 µM (inactive)	> 100 µM (inactive)	> 100 µM	> 100 µM (inactive)
Cc1c(S(=O)(=O)/N=C(\NN)Nc2ccc(Cl)cc2)sc2ccc(Cl)cc12	15.6 µM (inactive)	18 µM (inactive)	19 µM (inactive)		20 µM (inactive)	20.5 µM (inactive)	24 µM (inactive)	13.1 µM (inactive)		16.9 µM (inactive)	14.4 µM (inactive)	17 µM (inactive)	10.2 µM (inactive)	16.3 µM (inactive)	14.8 µM (inactive)	15.5 µM (inactive)	22.2 µM (inactive)	16.5 µM (inactive)	16.6 µM	27.9 µM (inactive)
NCCSc1nc2ccccc2c(=O)n1-c1ccccc1	42.9 µM (inactive)	68.9 µM (inactive)	24.4 µM (inactive)	23.9 µM (inactive)	> 100 µM (inactive)	53.8 µM (inactive)	45.5 µM (inactive)	> 10 µM (inactive)	44.3 µM (inactive)		> 100 µM (inactive)	45.5 µM (inactive)	32.6 µM (inactive)	> 100 µM (inactive)	33.9 µM (inactive)	52.8 µM (inactive)	11.9 µM (inactive)	> 100 µM (inactive)	43.8 µM	> 10 µM (inactive)
COc1ccc2c(c1)N=C(N)n1c(nc3ccccc31)S2	3.45 µM (inactive)	19.2 µM (inactive)	12.2 µM (inactive)		45.8 µM (inactive)	4.01 µM (inactive)	39.9 µM (inactive)	5.28 µM (inactive)	48.9 µM (inactive)	74.8 µM (inactive)	6.34 µM (inactive)	> 100 µM (inactive)	15.2 µM (inactive)	5.27 µM (inactive)	31.7 µM (inactive)	4.66 µM (inactive)	5.52 µM (inactive)	12.7 µM (inactive)	25.1 µM	4.47 µM (inactive)
CC(C)(C)OC(=O)NCC(c1c[nH]c2ccc(Br)cc12)c1c[nH]c2ccc(Br)cc12	8.63 µM (inactive)	6.82 µM (inactive)	7.11 µM (inactive)	11.7 µM (inactive)	16.6 µM (inactive)	3.56 µM (inactive)	6.64 µM (inactive)		5.18 µM (inactive)	11.7 µM (inactive)	7.48 µM (inactive)	12.6 µM (inactive)	10 µM (inactive)	5 µM (inactive)		7.36 µM (inactive)		10.5 µM (inactive)	7.73 µM	> 100 µM (inactive)
C=CCOn1c(C=C)nc2ccc(C)cc21	17.1 µM (inactive)	25.9 µM (inactive)	13.6 µM (inactive)	13.6 µM (inactive)	20.2 µM (inactive)	16.5 µM (inactive)	15.4 µM (inactive)	8.18 µM (inactive)	18.5 µM (inactive)		18.4 µM (inactive)	13.6 µM (inactive)	10.7 µM (inactive)	13.6 µM (inactive)	16 µM (inactive)	29.3 µM (inactive)	7.59 µM (inactive)	16.7 µM (inactive)	17 µM	2.95 µM (inactive)
O=c1c(Cc2ccccc2Cc2c(O)oc3ccccc3c2=O)c(O)oc2ccccc12	> 100 µM (inactive)	> 100 µM (inactive)	> 100 µM (inactive)	> 100 µM (inactive)	> 100 µM (inactive)	> 100 µM (inactive)	> 100 µM (inactive)	> 100 µM (inactive)		> 100 µM (inactive)	> 100 µM (inactive)	> 100 µM (inactive)	> 100 µM (inactive)	> 100 µM (inactive)	31.6 µM (inactive)	> 100 µM (inactive)		> 100 µM (inactive)	> 100 µM	> 100 µM (inactive)
